In PMC9963438, “Emerging Effects of Resveratrol Derivatives in Cells Involved in Oral Wound Healing: A Preliminary Study” (International Journal of Molecular Sciences, 2023):

Tests used:
[1] = test system: ALP mRNA in HOBs; assay: RT-qPCR of ALP in HOBs; type: cell-based, human; conditions: all concentrations (5, 10, 20 µM), compared to CTRL; not significant
Method: (§1) Total RNA was isolated using Trifast reagent (EuroClone) according to the manufacturer instructions from 3 × 10^5 cells/well treated with increasing concentrations of 1d and 1h for 48 h and 72 h. Complementary DNA (cDNA) was obtained using GoTaq® 2 Step RT-qPCR Kit (Promega, Madison, WI, USA) in accordance with the manufacturer’s instructions. RT-qPCR was carried out using SYBR Green (Promega) on the Quant Studio 7 Pro Real-Time PCR System (ThermoFisher, Waltham, MA, USA). The results were normalized to glyceraldehyde 3-phoshate dehydrogenase (GAPDH) for HUVECs and HGFs and to β-actin (βACT) for HOBs using the 2^−ΔΔCt method.

[2] = test system: HGFs; assay: LDH release assay on HGFs; type: cell-based, human; conditions: 24 h
Method: Lactate Dehydrogenase (LDH) activity in HUVECs, HGFs, and HOBs was measured with a cytotoxicity detection kit LDH (Roche, Basilea, Swiss). Firstly, 5000 cells/well (HUVECs, HGFs and HOBs) were seeded in 96-well plates and treated with 1d and 1h (5, 10, 20 µM). After 24 h, the assay was performed according to manufacturer instructions. LDH release was calculated as a percentage with respect to the control (CTRL).

[3] = test system: HUVECs; assay: Toluidine blue staining, morphology and confluence of HUVECs; type: cell-based, human; conditions: 5 µM; for HUVECs confluence: 48 h, compared to CTRL and RSV; for HUVECs growth / confluence: 72 h, compared to controls
Method: The influence of 1d and 1h was evaluated on cells density and morphology by toluidine-blue staining. A total of 2 × 10^4 cells/well were cultured in 24-well plates and were incubated at 37 °C and 5% CO2 with tested compounds at 5 µM. After 48 and 72 h, adherent cells were fixed with 70% cold ethanol and stained with 1% toluidine blue and 1% borax (Sigma Aldrich, St. Louis, MO, USA). Cells were then observed by an inverted microscope connected with a camera at 40×, 100×, and 200× magnifications (Leica, Wild Heer-brugg, Wetzlar, Germany).

[4] = test system: eNOS mRNA in HUVECs; assay: RT-qPCR of eNOS in HUVECs; type: cell-based, human
Method: as §1

[5] = Kinetics in human plasma (enzymatic hydrolysis); type: in vitro ADME; conditions: 37 °C; for Enzymatic hydrolysis t ½ / Enzymatic hydrolysis Kobs: Human plasma; for Enzymatic hydrolysis Kobs: mean of three experiments (SD); for half-life at 40 µg/mL: human, human plasma (80%) diluted with phosphate buffer, pH 7.4, Human plasma, read-out: Enzymatic hydrolysis t ½
Method: Human plasma was obtained from 3H Biomedical (Uppsala, Sweden, Europe). Plasma fractions (2 mL) were diluted with […] of a 0.02 M phosphate buffer (PBS, pH 7.4) to obtain a final volume of 2.5 mL (80% of plasma). A total of 100 µL of a stock solution, prepared to dissolve 1 mg of each compound in 1 mL of ACN, was added. Studies were performed at 37 ± 0.5 °C using a shaking bath. Aliquots (100 µL) were taken at established time points and treated with 400 µL of 0.01 M HCl in methanol. After centrifugation for 15 min at 6000× g, the supernatant was filtered and analyzed by HPLC [51].

[6] = test system: HUVECs; assay: MTT viability/proliferation on HUVECs; type: cell-based, human
Method: (§2) To measure HUVECs, HGFs, and HOBs metabolic activity as an indicator of cell viability and proliferation, an MTT assay (Sigma Aldrich, Milan, Italy) was performed. In brief, 8000 cells/well (HUVECs, HGFs and HOBs) were seeded in 96-well plates and after 24 h cells were treated with increasing concentrations of 1d and 1h for 48 h and 72 h. Then, the medium was replaced by a fresh one supplemented with […] MTT and probed for 4 h at 37 °C. The medium containing MTT was discarded and replaced by an equal volume of DMSO to dissolve formazan crystals. The absorbance of the solution was read at a 540 nm wavelength by a microplate reader (Multiskan GO, Thermo Scientific, MA, USA). Values obtained without cells were considered as background. Viability and proliferation were normalized to control cells treated with DMSO 0.1%.

[7] = test system: FN1 mRNA in HGFs; assay: RT-qPCR of FN1 in HGFs; type: cell-based, human; conditions: 5, 10, 20 µM, 48 and 72 h, compared to RSV-treated cells and CTRL
Method: as §1

[8] = LogP determination (n-octanol/phosphate buffer pH 7.4); type: physicochemical; conditions: n-octanol/aqueous phosphate buffer, pH 7.4, n-octanol / phosphate buffer pH 7.4; mean of three experiments (SD)
Method: Both n-octanol and aqueous phosphate buffer (pH 7.4) solutions were saturated of each other by shaking. A total of 1 mL of n-octanol was added to an equal volume of an aqueous phosphate buffer (pH 7.4). A total of 5 mg of each compound was added and mixed by repeated inversion up to 200 times for 5 min and then allowed to stand for 30 min for the full separation of the two phases. Next, the respective phases were filtered and analyzed by HPLC [50] and the logarithm of the ratio of the concentrations of the unionized solute in the solvents (LogP) were determined.

[9] = test system: HGFs; assay: MTT viability/proliferation on HGFs; type: cell-based, human; conditions: vs CTRL and RSV 10 µM
Method: For the initial screening, HGFs were seeded at a density of 8000 cells/well into a 96-well culture plate and cultured for 24 h. […] The DMSO final concentration was established at 0.1% in all tested samples.
as §2

[10] = Water solubility; type: physicochemical; conditions: deionized water, 25 °C
Method: An excess of compounds 1d and 1h was placed in 1 mL of deionized water and the suspension was shaken at 25 °C for 15 min to ensure the solubility equilibrium. Next, the supernatant was filtered (Millipore 0.45 µm, Burlington, Massachusetts, USA) and analyzed by HPLC [49].

[11] = test system: COL1 mRNA in HGFs; assay: RT-qPCR of COL1 in HGFs; type: cell-based, human
Method: as §1

[12] = 10 and 20 µM, differences not significant
[13] = 5 µM, 72 h, vs CTRL and RSV 10 µM
[14] = 10 µM, 48 h, vs CTRL and RSV 10 µM
[15] = 10 µM, 72 h, vs CTRL and RSV 10 µM
[16] = 20 µM, 72 h, vs CTRL and RSV 10 µM
[17] = all concentrations (5, 10, 20 µM), 48 and 72 h

LDH release ([2]; 5 µM)	LDH release [2, 12]	Enzymatic hydrolysis t ½ [5] [h]	Enzymatic hydrolysis Kobs [5]	half-life at 40 µg/mL [5] [min]	logP [8]	Water solubility [10]	melting point [°C]	SMILES	ALP mRNA level [1]	HUVECs confluence [3]	HUVECs growth / confluence [3]	eNOS mRNA expression ([4]; 5 µM, 48 h, vs CTRL and RSV)	eNOS mRNA expression ([4]; 5, 10, 20 µM, 72 h)	HUVECs viability (MTT) [6, 13]	HUVECs viability (MTT) [6, 14]	HUVECs viability (MTT) [6, 15]	HUVECs viability (MTT) [6, 16]	FN1 mRNA level [7]	HGFs proliferation rate (MTT) ([9]; 5 µM, 48 h)	HGFs proliferation rate (MTT) ([9]; 5 µM, 72 h)	also measured
lowest LDH values	slightly increased the LDH	49.5	0.014 (±0.005) h^−1	> 2940	< 3	insoluble in water	182 to 183	Cc1ccc(S(=O)(=O)Nc2ccc(/C=C/c3ccccc3)cc2)cc1 [1d, 4-Methyl-N-{4-[(E)-2-phenylvinyl]phenyl}benzenesulfonamide]	slight increase in the ALP mRNA level	reached confluence approximately earlier	growth was more consistent	increased after 48 h exposure to all 1d concentrations with statistical significance just for 5 µM	slightly promoted the enhancement of eNOS expression	significantly promoted cell viability with respect to RSV	slightly increased for 10 µM only with respect to RSV	viability was not enhanced	viability was not enhanced	no significant modifications	significant increase in proliferation rate	significantly promoted cell proliferation	eNOS mRNA expression ([4]; 10 and 20 µM, 48 h, not statistically significant): increased; HUVECs viability (MTT) ([6]; 5 µM, 48 h, vs CTRL (0.1% DMSO) and RSV 10 µM): slight increase in metabolic activity at 5 µM compared to the CTRL and a significant increase compared to RSV; HGFs proliferation rate (MTT) ([9]; 10 µM, 48 h): slight increment of cell growth compared to RSV, but not in respect to the CTRL; HGFs proliferation rate (MTT) ([9]; 20 µM, 72 h): proliferative rate was lower; COL1 mRNA level ([11]; 5 µM, 48 h, compared to CTRL and RSV): significantly highest result; COL1 mRNA level [11, 17]: increase in COL1 mRNA level
lowest LDH values	slightly increased the LDH	51.7	0.013 (±0.003) h^−1	> 2940	< 3	insoluble in water	230 to 231	CCS(=O)(=O)Nc1ccc(/C=C/c2ccccc2)cc1 [1h, N-{4-[(E)-2-Phenylvinyl]phenyl}ethanesulfonamide]	slight increase in the ALP mRNA level	reached confluence approximately earlier	growth was more consistent	increased eNOS expression at 5 µM	slightly promoted	slightly favored cell growth with respect to RSV	viability was not induced	viability significantly decreased	viability significantly decreased	no significant modifications	cell proliferation was significantly higher	cell proliferation was significantly higher	HUVECs viability (MTT) ([6]; 20 µM, 48 h, vs CTRL and RSV 10 µM): viability was not induced; COL1 mRNA level [11, 17]: increase in COL1 mRNA level
